Assay results as given in patent US20070015733A1, “Aryl Phosphate Derivatives of d4T having Activity Against Resistant HIV Strains” (Parker Hughes Institute, priority 1998, published 2007).

Experiments:
HIV-1 HTLVIIIB = assay: microbe, parasite or virus in culture; details: read-out: IC50 HTLVIIIB; PBMNC, p24
Procedure: In vitro assays of anti-HIV-1 activity. Normal human peripheral blood mononuclear cells (PBMNC) from HIV-negative donors were cultured 72 hours in RPMI 1640 supplemented with 20% (v/v) heat-inactivated fetal bovine serum (FBS), 3% interleukin-2, 2 mM L-glutamine, 25 mM HEPES, 2 g/L NaHCO3, […], and […] prior to exposure to HIV-1 at a multiplicity of infection (MOI) of 0.1 during a 1 hour adsorption period at 37° C. in a humidified 5% CO2 atmosphere. Subsequently, cells were cultured in 96-well microtiter plates ([…]; 2×10^6 cells/mL) in the presence of various concentrations of d4T phosphoramidates and aliquots of culture supernatants were removed from the wells on the 7th day after infection for p24 antigen assays, as previously described (Uckun et al., 1998, Antimicrobial Agents and Chem., 42(2):383-388). The applied p24 enzyme immunoassay (EIA) was the unmodified kinetic assay commercially available from Coulter Corporation/Immunotech, Inc. (Westbrooke, Me.), which utilizes a murine mAb to HIV core protein coated onto microwell strips to which the antigen present in the test culture supernatant samples binds. Percent viral inhibition was calculated by comparing the p24 values from untreated infected cells (i.e., virus controls).
The anti-HIV activity of the compounds was examined by evaluating their ability to inhibit HIV replication in peripheral blood mononuclear cells using previously described procedures (Uckun et al., 1998, Antimicrobial Agents and Chem., 42(2):383-388). Percent inhibition of viral replication was calculated by comparing the p24 antigen levels from the test substance-treated infected cells with those from vehicle-treated infected cells.
Antiviral susceptibility assays. Phenotypic drug susceptibility studies of HIV-1 isolates and strains were performed by measuring the production of the p24 gag protein in peripheral blood mononuclear cells (PBMC) from seronegative healthy volunteers in the presence of increasing concentrations of the anti-HIV agent using the quantitative Coulter HIV-1 p24 antigen ezyme immunoassay (EIA) and HIV-1 p24 Antigen Kinetic Standard (Beckman Coulter), as previously described (Uckun, 1998, Antimicrobial Agents and Chemotherapy 37(4): 835-38). Informed consent was obtained from the blood donors according to DHHS guidelines using consent forms approved by the Institutional Review Board. In brief, PBMC were cultured for 72 h in RPMI 1640 medium (Gibco) supplemented with 20% (vol/vol) heat-inactivated fetal bovine serum, 5% human interleukin-2 (Zeptometrix), 2 mM L-glutamine, 25 mM HEPES, 2 g/L NaHCO3, 100 U/ml penicillin/streptomycin (Gibco), 50 μg/ml gentamicin (Gibco), and 5 μg/ml phytohemagglutinin-P (PHA-P) (Sigma) for 24-72 hours prior to exposure to HIV at a multiplicity of infection of 0.001-0.1 during a 1-h adsorbtion period at 37±1° C. in a humidified 5-7% CO2 atmosphere. Subsequently, cells were cultured in 96-well microtiter plates (100 μl/well; 2×10^6 cells/ml, triplicate wells) in the presence of the anti-HIV agents at 6-7 different concentrations ranging from 0.0001 μM to 100 μM, and 25 μL aliquots of culture supernatants were removed from the wells on day 6 after infection for p24 EIA, as previously described (Uckun, 1998, Antimicrobial Agents and Chemotherapy, 37(4):835-38). Controls included uninfected and untreated cells (background control) and infected but untreated (virus control) cells. The p24 EIA utilizes a murine monoclonal antibody to HIV core protein used to coat microwell strips to which the antigen present in the test culture supernatant samples binds. Percent inhibition of viral replication was calculated by comparing the p24 values from the test substance-treated infected cells with p24 values from untreated infected cells (i.e., virus controls). The IC50 values were determined using the Statview statistics program (SAS Institute, Inc.).

[1] = tested on: HIV-1 A17-variant (Y181C+K103N mutant, NNRTI-resistant); assay: p24 antigen assay, A17-variant strain in PBMC; assay type: cell-based; details: PBMNC, p24; read-out: IC50 A17V
Text: (§1) In vitro assays of anti-HIV-1 activity.
(§2) Viruses. 20 primary clinical isolates with genotypic and/or phenotypic NRTI-resistance (isolated in the laboratory of D. Richman) and 10 clinical isolates with phenotypic stavudine (d4T) resistance (obtained through the AIDS Research and Reference Reagent Program, NIAID) were used in the current study. The HIV-1 strains HTLVIIIB (wildtype RT, NRTI-sensitive, NNRTI-sensitive), A17 (Y181 C mutant, NNRTI-resistant), A17-variant (Y181C+K103N mutant, NNRTI-resistant), and RT-MDR (M41 L, V106N, T215Y; NRTI-resistant, NNRTI-resistant) were also obtained from the AIDS Research and Reference Reagent Program, NIAID.
(§3) Antiviral susceptibility assays.

[2] = tested on: HIV-1 A17 (Y181C mutant, NNRTI-resistant); assay: p24 antigen assay, A17 strain in PBMC; assay type: cell-based; details: PBMNC, p24; read-out: IC50 A17
Text: as §1, §2, §3

[3] = Alkaline chemical hydrolysis rate (NaOH/methanol, HPLC); assay type: physicochemical; details: alkali hydrolysis
Procedure: All chemicals were purchased from Aldrich (Milwaukee, Wis.), with the exception of d4T which was synthesized in-house. All syntheses were performed under a nitrogen atmosphere. ^1H, ^13C, and ^31P NMR were obtained on a Varian Mercury 300 instrument at ambient temperature in CDCl3. FT-IR spectra were recorded on a Nicolet Protege 460 spectrometer. MALDI-TOF mass spectra were obtained by using a Finnigan MAT 95 system. UV spectra were recorded by using a Beckmann UV-VIS spectrophotometer (Model 3DU 74000) with a cell path length of 1 cm. HPLC purification was achieved by using a reverse-phase Lichrospher column (250×4 mm, Hewlett-Packard, RP-18, Cat # 79925) and an isocratic flow (1 ml/minute) consisting of water (70%) and acetonitrile (30%). The alkaline chemical hydrolysis was conducted at room temperature with sodium hydroxide (1 ml of 0.05N) and 3 ml of methanol solution containing 10 mg of the substrates in a Teflon lined reaction vial. […] The disappearance of the starting material was monitored as a function of time. […]
Statistical Analysis. The IC50 values were calculated from each set of triplicate wells using nonlinear regression modeling of the exponential form of the linearized equation. […] Hydrolysis rates were determined by fitting single exponential decay equations to the disappearance of the compound in alkali conditions. […]

[4] = Octanol/water partition coefficient, shake flask method; assay type: physicochemical
Procedure: Partition Coefficients. The octanol/water partition coefficient was determined by the shake flask method. The phosphoramidate analogs were added to 2 ml of water and 2 ml of octanol in a glass vial. The mixture was shaken for 4 hours at room temperature. The two phases were carefully separated and filtered through a Millipore filter and analyzed by HPLC. The partition coefficient was calculated using the ratio of the area under the curve for octanol and water respectively.

[5] = tested on: HIV-1 RT-MDR (NRTI-resistant, NNRTI-resistant); assay: p24 antigen assay, RT-MDR strain; assay type: cell-based; details: p24; read-out: IC50 RTMDR

Row | Structure (SMILES) | IC50 (HIV-1 HTLVIIIB) | IC50 [1] | IC50 [2] | Hydrolysis Rate [3] | Partition Coefficient (log P) [4] | IC50 [5]
1 | COC(=O)C(C)NP(=O)(OCC1C=CC(n2cc(C)c(=O)[nH]c2=O)O1)Oc1ccccc1Cl (centres unmarked) [Compound 13, 5′-[2-Chlorophenylmethoxyalaninylphosphate]-2′,3′-didehydro-3′-deoxythymidine] | 3 ± 1 nM | 15 ± 8 nM | 34 ± 20 nM | 0.0370 min⁻¹ | 0.84 | 187 ± 108 nM
2 | COC(=O)C(C)NP(=O)(OCC1C=CC(n2cc(C)c(=O)[nH]c2=O)O1)Oc1cccc(Br)c1 (centres unmarked) [Compound 9, 5′-[3-Bromophenylmethoxyalaninylphosphate]-2′,3′-didehydro-3′-deoxythymidine] | 2 ± 2 nM |  | 42 ± 24 nM | 0.0338 min⁻¹ | 1.12 | 493 ± 285 nM
